Data taken from patent publication US20260184708A1, “PYRIDAZINONES AND METHODS OF USE THEREOF” (GFB (ABC), LLC, priority 2017, published 2026).

The molecules below were run against T1, TRPC5 (Homo sapiens, UniProt Q9UL62) (assay: TRPC5 Fluorescence Assay - FLIPR format (HEK-TREx hTRPC5, Riluzole stimulation)). Settings: Table 7, read-out: TRPC5-FLIPR IC50.
T1 construct: expressed in transfected cells; host or cells: HEK 293
T1 sequence (Q9UL62 1-973): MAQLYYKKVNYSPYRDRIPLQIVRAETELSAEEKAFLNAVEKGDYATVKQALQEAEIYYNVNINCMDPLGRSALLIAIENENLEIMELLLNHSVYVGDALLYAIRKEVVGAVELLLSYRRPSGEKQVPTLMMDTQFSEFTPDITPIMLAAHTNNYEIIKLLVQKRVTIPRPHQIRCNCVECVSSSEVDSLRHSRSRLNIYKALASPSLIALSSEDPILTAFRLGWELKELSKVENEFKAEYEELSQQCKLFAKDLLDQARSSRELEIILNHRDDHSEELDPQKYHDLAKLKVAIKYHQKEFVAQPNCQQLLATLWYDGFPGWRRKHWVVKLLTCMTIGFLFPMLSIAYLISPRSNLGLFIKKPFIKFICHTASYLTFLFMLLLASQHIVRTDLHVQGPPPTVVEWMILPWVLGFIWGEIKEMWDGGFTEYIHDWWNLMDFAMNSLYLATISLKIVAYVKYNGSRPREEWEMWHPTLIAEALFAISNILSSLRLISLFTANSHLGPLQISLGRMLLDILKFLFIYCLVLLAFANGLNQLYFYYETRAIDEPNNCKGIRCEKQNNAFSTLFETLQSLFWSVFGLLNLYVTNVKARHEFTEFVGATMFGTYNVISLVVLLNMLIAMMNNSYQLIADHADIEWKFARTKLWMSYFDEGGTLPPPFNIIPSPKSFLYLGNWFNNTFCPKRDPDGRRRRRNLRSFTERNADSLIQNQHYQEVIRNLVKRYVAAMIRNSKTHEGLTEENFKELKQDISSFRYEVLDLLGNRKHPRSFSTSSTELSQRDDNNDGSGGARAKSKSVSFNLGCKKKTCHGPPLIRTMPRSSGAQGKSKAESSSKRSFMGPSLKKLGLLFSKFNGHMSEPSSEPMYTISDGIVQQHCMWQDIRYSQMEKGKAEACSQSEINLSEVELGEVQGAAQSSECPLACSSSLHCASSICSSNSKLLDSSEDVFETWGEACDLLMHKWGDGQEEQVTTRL
Assay type: cell-based
Experimental: • Cell line: ICLN-001633 • Base Cell: HEK • Channel: TRPC5 • Species: Human • Thaw ID: multiple • Passage: multiple
FLIPR Assay Buffer (Earls Balanced Salt Solution (EBSS) was prepared as follows:
(§1) Test Agent Preparation: Compounds were made up to, or supplied as, a 10 mM stock solution generally using DMSO as the vehicle. 10-point dose response curves were generated using the Echo-550 acoustic dispenser. Compound source plates were made by serially diluting compound stocks to create 10 mM, 1 mM, and 0.1 mM solutions in DMSO into Echo certified LDV plates. The Echo then serially spotted 100% DMSO stock solutions into source dose response plates to generate a 4-fold dilution scheme. 100% DMSO was added to the spotted dose response plates to bring the final volume to 5 μl. […] of the dose response stock plate was then spotted into pre-incubation and stimulation assay plates. 50 μl of pre-incubation buffer and 100 μl of stimulation buffer was then added to the plates resulting in a final assay test concentration range of 30 μM to 0.0001 μM with a final DMSO concentration of 0.3%.
Experimental Methods: Cells expressing TRPC5 (HEK-TREx hTRPC5) are plated onto 384 well, black PDL-coated microplates and maintained in TRPC5 growth media the day prior to use for experiments. TRPC5 expression is induced by the application of […] tetracycline at the time of plating. Media is removed from the plates and 10 μl of 4 μM of Fluo-4 AM (mixed with equal volume of Pluronic F-127) in EBSS is added to the cells. Cells are incubated at room temperature, protected from light, for 60-90 minutes. After the incubation period, the dye is removed and replaced with 10 μl of EBSS. Cell, pre-incubation and stimulation plates are loaded onto the FLIPR-II and the assay is initiated. The FLIPR measures a 10 second baseline and then adds 10 μl of 2× compounds (or controls). Changes in fluorescence are monitored for an additional 5 minutes. After the 5 minute pre-incubation, 20 μl of 2× Riluzole (with 1× compound or controls) is added to the cell plate. The final Riluzole stimulation concentration in the assay is 30 μM. After the Riluzole addition, changes in fluorescence are monitored for an additional 5 minutes.
(§2) Test Agent Effect: Test agent modulation of TRPC5 calcium response was determined as follows. After the Riluzole, fluorescence was monitored for a 5 minute period. The maximum relative fluorescene response (minus the control response of 1 μM of the control inhibitor) was captured and exported from the FLIPR. Test agent effect was calculated as % inhibition using the following formula: % inhibition=((RFU Test Agent−Plate Average RFU REF INHIB)/(Plate Average RFU Control−Plate Average RFU REF INHIB))×100
In the case of `CN(Cc1ccccc1C(F)(F)F)c1ncnc2c1CCN(c1cn[nH]c(=O)c1Cl)C2`, the IC50 is reported as 5000 to 10000 nM. With `O=c1[nH]ncc(N2CCc3c(ncnc3Oc3ccccc3C(F)(F)F)C2)c1Cl` the IC50 was 0.01 to 1000 nM. In the case of `CCc1ncccc1[C@H](C)n1nnc2c1CCN(c1cn[nH]c(=O)c1Cl)C2` [drawing 928], the IC50 is reported as 0.01 to 1000 nM. `O=c1[nH]ncc(N2CCc3c(c(=O)[nH]n3Cc3ccccc3C(F)F)C2)c1Cl` [drawing 936] gave an IC50 of 0.01 to 1000 nM.

Same assay, conditions: Table 9, read-out: hTRPCS-FLIPR IC50
`O=c1[nH]ncc(N2CCN(Cc3ccccc3C(F)(F)F)CC2)c1Cl` [drawing 1036] was tested, and the IC50 was 1000 to 5000 nM. For `C[C@H](O)c1ncccc1CN1CCN(c2cn[nH]c(=O)c2Cl)CC1`, the IC50 was 0.01 to 1000 nM. `C[C@@H](O)c1ncccc1CN1CCN(c2cn[nH]c(=O)c2Cl)CC1` was tested, and the IC50 was 1000 to 5000 nM. `Cc1ccccc1C(O)C1CCN(c2cn[nH]c(=O)c2Cl)CC1` (centres unmarked) showed an IC50 of 1000 to 5000 nM.

Same assay, conditions: Table 10, read-out: TRPCS-FLIPR IC50
`N[C@@H](c1nn(Cc2ccccc2C(F)(F)F)c2c1CN(c1cn[nH]c(=O)c1Cl)CC2)C(F)(F)F` gave an IC50 of 1000 to 5000 nM. `N[C@H](c1cc(F)ccc1Cn1nnc2c1CCN(c1cn[nH]c(=O)c1Cl)C2)C(F)(F)F` showed an IC50 of 0.01 to 1000 nM. In the case of `CCS(=O)(=O)c1nn(Cc2ccc(F)cc2C(F)F)c2c1CN(c1cn[nH]c(=O)c1Cl)CC2`, the IC50 is reported as 1000 to 5000 nM. Molecule `C[C@@H](c1cc(F)ccc1C(F)(F)F)n1nnc2c1CCN(c1cn[nH]c(=O)c1Cl)C2` has an IC50 of 0.01 to 1000 nM. `COC[C@H](c1ccc(F)cc1C(F)(F)F)n1cnc2c1CCN(c1cn[nH]c(=O)c1Cl)C2` showed an IC50 of 0.01 to 1000 nM. With `C[C@@H](c1ccc(Cl)cc1C(F)(F)F)n1nnc2c1CCN(c1cn[nH]c(=O)c1Cl)C2` the IC50 was 0.01 to 1000 nM. `C[C@H](c1ccc(Cl)cc1C(F)(F)F)n1nnc2c1CCN(c1cn[nH]c(=O)c1Cl)C2` showed an IC50 of 0.01 to 1000 nM. `CCc1ncccc1[C@H](C)n1nnc2c1CCN(c1cn[nH]c(=O)c1Cl)C2` [drawing 1059] was tested, and the IC50 was 0.01 to 1000 nM. In the case of `C[C@@H](c1ccc(F)cc1CN1CCOCC1)n1nnc2c1CCN(c1cn[nH]c(=O)c1Cl)C2`, the IC50 is reported as 1000 to 5000 nM. Work on `C[C@H](c1ccc(F)cc1C(F)(F)F)n1[nH]c(=O)c2c1CCN(c1cn[nH]c(=O)c1Cl)C2` yielded an IC50 of 0.01 to 1000 nM. Work on `C[C@@H]1Cc2c(nnn2[C@H](C)c2ccc(F)cc2C(F)(F)F)CN1c1cn[nH]c(=O)c1Cl` yielded an IC50 of 0.01 to 1000 nM. `O=c1[nH]ncc(N2CCc3c(cnn3Cc3ccc(F)cc3CN3CCOCC3)C2)c1Cl` was tested, and the IC50 was 0.01 to 1000 nM. In the case of `O=c1[nH]ncc(N2Cc3cnc(Oc4ccccc4C(F)(F)F)nc3C2)c1Cl`, the IC50 is reported as 0.01 to 1000 nM. `C[C@H]1c2nnn([C@@H](C)c3ccc(F)cc3C(F)(F)F)c2CCN1c1cn[nH]c(=O)c1Cl` showed an IC50 of 0.01 to 1000 nM. Work on `Nc1nn(Cc2ccc(F)cc2C(F)(F)F)c2c1CN(c1cn[nH]c(=O)c1Cl)CC2` yielded an IC50 of 0.01 to 1000 nM. Work on `C[C@H]1CCC[C@H]1Cn1nnc2c1CCN(c1cn[nH]c(=O)c1Cl)C2` yielded an IC50 of 0.01 to 1000 nM. Molecule `CN(c1ncc2c(n1)CN(c1cn[nH]c(=O)c1Cl)C2)c1ccccc1Cl` has an IC50 of 0.01 to 1000 nM. Work on `Cn1c(=O)c2c(n1Cc1ccccc1C(F)F)CCN(c1cn[nH]c(=O)c1Cl)C2` yielded an IC50 of 0.01 to 1000 nM. `Cn1c(=O)c2c(n1Cc1ccccc1C(F)(F)F)CCN(c1cn[nH]c(=O)c1Cl)C2` was tested, and the IC50 was 1000 to 5000 nM.

Each molecule was assayed against T2, TRPC4 (Homo sapiens, UniProt Q9UBN4) (assay: TRPC4 FLIPR Assay (HEK-TREx hTRPC4, Englerin A stimulation)). Settings: Table 8; HEK-TREx hTRPC4; read-out: TRPC4 FLIPR IC50.
T2 construct: expressed in transfected cells; host or cells: HEK-TREx (HekTrex-293), cell line ICLN-1694, tetracycline-induced
T2 sequence (Q9UBN4 1-982 isoform Q9UBN4-5): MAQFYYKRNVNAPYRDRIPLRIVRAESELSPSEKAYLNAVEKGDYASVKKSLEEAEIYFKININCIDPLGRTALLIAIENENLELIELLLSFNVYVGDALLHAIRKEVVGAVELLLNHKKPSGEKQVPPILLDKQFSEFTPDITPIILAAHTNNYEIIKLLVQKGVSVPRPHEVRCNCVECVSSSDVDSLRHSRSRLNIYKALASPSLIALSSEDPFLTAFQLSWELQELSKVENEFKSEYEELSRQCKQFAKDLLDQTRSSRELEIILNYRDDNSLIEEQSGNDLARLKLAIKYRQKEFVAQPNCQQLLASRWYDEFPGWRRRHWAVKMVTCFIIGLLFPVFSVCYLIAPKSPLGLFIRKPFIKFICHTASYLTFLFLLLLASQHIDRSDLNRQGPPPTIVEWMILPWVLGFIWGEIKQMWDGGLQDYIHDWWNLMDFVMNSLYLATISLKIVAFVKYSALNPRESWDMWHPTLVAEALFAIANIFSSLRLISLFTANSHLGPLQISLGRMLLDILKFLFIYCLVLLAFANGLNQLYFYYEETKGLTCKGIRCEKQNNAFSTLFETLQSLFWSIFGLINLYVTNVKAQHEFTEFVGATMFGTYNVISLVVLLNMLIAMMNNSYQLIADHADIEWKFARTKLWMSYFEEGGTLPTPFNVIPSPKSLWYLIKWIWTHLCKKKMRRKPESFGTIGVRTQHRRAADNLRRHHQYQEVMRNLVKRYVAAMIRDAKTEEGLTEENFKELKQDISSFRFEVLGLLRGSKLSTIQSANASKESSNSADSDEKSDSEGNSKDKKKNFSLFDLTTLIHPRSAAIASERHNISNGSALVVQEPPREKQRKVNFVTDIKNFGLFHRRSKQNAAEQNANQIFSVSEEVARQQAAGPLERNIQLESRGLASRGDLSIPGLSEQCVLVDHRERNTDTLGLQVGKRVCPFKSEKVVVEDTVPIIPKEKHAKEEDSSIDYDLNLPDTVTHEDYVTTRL
Assay type: cell-based
Experimental: FLIPR Assay Buffer (Earls Balanced Salt Solution (EBSS)) was prepared as follows:
as §1, with “10-point” for “Test Agent Preparation: Compounds were made up to, or supplied as, a 10 mM stock solution generally using DMSO as the vehicle. 10-point”, “[…]” for “50 μl”
Experimental Methods: Cells expressing TRPC4 were plated onto 384 well, black pdl-coated microplates and maintained in TRPC4 growth media the day prior to use for experiments. TRPC4 expression was induced by the application of 1 μg/ml tetracycline at the time of plating. […] Cells were incubated at room temperature, protected from light, for 60-90 minutes. After the incubation period, the dye was removed and replaced with 10 μl of EBSS. Cell, pre-incubation and stimulation plates were loaded onto the FLIPR-II and the assay was initiated. The FLIPR measured a 10 second baseline and then added 10 μl of 2× compounds (or controls). Changes in fluorescence were monitored for an additional 5 minutes. After a 5 minute pre-incubation, 20 μl of 2× Englerin A (with 1× compound or controls) was added to the cell plate. The final Engerlin A stimulation concentration in the assay is 100 nM. After the Englerin A addition, changes in fluorescence were monitored for an additional 5 minutes.
as §2, with “TRPC4” for “TRPC5”, “Englerin A,” for “Riluzole,”, “fluorescence” for “fluorescene”, “[…]” for “1 μM”, “TEST AGENT−Plate” for “Test Agent−Plate”, “CONTROL−Plate” for “Control−Plate”
For `C[C@@H]1CN(Cc2ccccc2C(F)(F)F)CCN1c1cn[nH]c(=O)c1Cl` [drawing 1016], the IC50 was 5000 to 10000 nM. Work on `C[C@H](c1ccccc1C(F)F)n1nnc2c1CCN(c1cn[nH]c(=O)c1Cl)C2` [drawing 977] yielded an IC50 of 0.01 to 1000 nM. `C[C@@H](c1ccccc1C(F)(F)F)n1nnc2c1CCN(c1cn[nH]c(=O)c1C#N)C2` was tested, and the IC50 was 0.01 to 1000 nM. With `O=c1[nH]ncc(N2CCc3c(ncn3Cc3ccc(F)cc3Cl)C2)c1Cl` [drawing 998] the IC50 was 0.01 to 1000 nM. `O=C1CN(c2cn[nH]c(=O)c2Cl)CCN1Cc1ccc(F)cc1F` [drawing 1014] showed an IC50 of 1000 to 5000 nM.
